Reference: ChEMBL document CHEMBL1146098, “Synthesis and characterization of 3-arylquinazolinone and 3-arylquinazolinethione derivatives as selective estrogen receptor beta modulators” (J Med Chem, 2006)

Legend:
Estrogen receptor beta [1] = molecular target: T1, Estrogen receptor beta (Homo sapiens, UniProt Q92731)
Estrogen receptor beta [2] = molecular target: T1, Estrogen receptor beta; remark: listed apart in the source
Description: Inhibition of ER beta-mediated transactivation of ERE in HeLa cell luciferase assay

Estrogen receptor = molecular target: T2, Estrogen receptor (Homo sapiens, UniProt P03372)
T2 sequence (P03372 whole entry): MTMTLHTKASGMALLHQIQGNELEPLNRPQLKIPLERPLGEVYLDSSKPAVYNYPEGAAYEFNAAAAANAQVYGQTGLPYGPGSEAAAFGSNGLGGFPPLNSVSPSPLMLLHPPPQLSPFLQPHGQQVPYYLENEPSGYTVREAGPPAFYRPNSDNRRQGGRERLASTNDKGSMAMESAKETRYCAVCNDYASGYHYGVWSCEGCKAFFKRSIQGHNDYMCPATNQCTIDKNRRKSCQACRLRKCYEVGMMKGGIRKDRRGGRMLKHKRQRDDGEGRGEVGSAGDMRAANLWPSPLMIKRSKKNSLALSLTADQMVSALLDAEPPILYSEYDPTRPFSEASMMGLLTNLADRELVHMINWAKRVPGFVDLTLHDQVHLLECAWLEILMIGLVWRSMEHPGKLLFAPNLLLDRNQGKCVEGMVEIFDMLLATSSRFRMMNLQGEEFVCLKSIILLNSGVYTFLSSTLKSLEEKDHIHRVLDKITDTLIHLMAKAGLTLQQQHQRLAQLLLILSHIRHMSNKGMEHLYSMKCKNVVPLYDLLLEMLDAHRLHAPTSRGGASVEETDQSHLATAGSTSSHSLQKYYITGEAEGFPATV
Description: Displacement of [3H]estrone from ER alpha

T1 sequence (Q92731 whole entry): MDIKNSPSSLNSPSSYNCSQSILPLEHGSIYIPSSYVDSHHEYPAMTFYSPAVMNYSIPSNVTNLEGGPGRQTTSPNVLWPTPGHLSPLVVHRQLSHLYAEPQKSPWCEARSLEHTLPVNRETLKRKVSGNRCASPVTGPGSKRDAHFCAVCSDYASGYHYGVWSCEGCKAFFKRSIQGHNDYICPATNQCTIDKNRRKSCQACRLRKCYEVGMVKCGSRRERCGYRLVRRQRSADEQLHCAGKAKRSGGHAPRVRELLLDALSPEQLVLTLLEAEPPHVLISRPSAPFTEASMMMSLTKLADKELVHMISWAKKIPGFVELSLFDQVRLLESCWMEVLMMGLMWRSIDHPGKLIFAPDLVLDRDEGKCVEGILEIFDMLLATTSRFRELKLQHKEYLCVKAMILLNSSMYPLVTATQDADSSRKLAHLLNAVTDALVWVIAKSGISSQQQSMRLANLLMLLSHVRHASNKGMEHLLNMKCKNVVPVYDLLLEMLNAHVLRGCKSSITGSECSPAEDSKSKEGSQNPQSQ

| Compound | IC50 (Estrogen receptor beta [1]) [µM] | EC50 (Estrogen receptor beta [2]) [µM] | IC50 (Estrogen receptor) [µM] |
| --- | --- | --- | --- |
| CCOc1cc(O)cc2ncn(-c3ccc(O)cc3)c(=O)c12 | 44.3 |  |  |
| O=c1c2c(O)cc(O)cc2ncn1-c1cccc(O)c1 | 3.84 | 0.904 | 43.8 |
| CCc1nc2cc(O)cc(O)c2c(=O)n1-c1ccc(O)cc1 | 5.75 | 1.26 | 19.4 |
| CC(C)c1nc2cc(O)cc(O)c2c(=O)n1-c1ccc(O)cc1 | 48.1 |  | 70.4 |
| Cc1cc(O)ccc1-n1cnc2cc(O)cc(O)c2c1=O | 0.422 | 0.111 | 4.38 |
| O=c1c2c(O)cc(O)cc2ncn1-c1ccc(O)c(Cl)c1 | 7.21 | 1.18 | 55 |
| CCc1cc(O)cc2ncn(-c3ccc(O)cc3)c(=O)c12 | 0.265 | 0.062 | 13.2 |
| O=c1c2ccc(O)cc2ncn1-c1ccc(O)cc1 | 8.61 | 0.961 | 53.6 |
| CCCc1c(O)cc2ncn(-c3ccc(O)cc3)c(=O)c2c1O | 7.3 |  | 10.6 |
| Oc1ccc(-n2cnc3cc(O)cc(O)c3c2=S)nc1 | 0.515 | 0.173 | 27.6 |
| COC(=O)c1cc(O)cc2ncn(-c3ccc(O)cc3)c(=O)c12 | 9.54 | 9.41 | 81.3 |
| C=Cc1cc(O)cc2ncn(-c3ccc(O)cc3)c(=O)c12 | 17 | 0.75 |  |
| O=c1c2c(O)cc(O)c(I)c2ncn1-c1ccc(O)cc1 | 4.08 | 0.593 |  |
| O=c1c2c(O)cc(O)cc2ncn1-c1ccc(O)cc1 | 0.179 | 0.076 | 11.1 |
| Cc1nc2cc(O)cc(O)c2c(=O)n1-c1ccc(O)cc1 | 11.4 | 1.58 | 33.2 |
| N#Cc1cc(O)cc2ncn(-c3ccc(O)cc3)c(=O)c12 | 73.7 | 7.58 |  |
| CCc1cc(O)cc2ncn(-c3ccc(O)cc3)c(=S)c12 | 0.156 | 0.053 | 2.26 |
| O=c1c2c(O)cc(O)cc2ncn1-c1ccc(O)cc1Cl | 0.263 | 0.251 | 6.25 |
| Cc1cc(-n2cnc3cc(O)cc(O)c3c2=S)ccc1O | 0.658 | 0.16 | 2.85 |
| Nc1cc(O)cc2ncn(-c3ccc(O)cc3)c(=O)c12 | 8.24 | 2.06 | 15.5 |
| O=c1c2c(O)c(I)c(O)cc2ncn1-c1ccc(O)cc1 | 3.97 | 1.64 |  |
| Cc1cc(O)cc2ncn(-c3ccc(O)cc3)c(=O)c12 | 0.317 | 0.136 | 9.63 |
| O=c1c2c(O)cc(O)cc2[nH]c(=S)n1-c1ccc(O)cc1 | 6.99 | 1.99 | 11.1 |
| O=c1c2c(O)cc(O)cc2ncn1-c1ccc(O)nc1 | 51.7 | 9.76 | 66.9 |

| Compound | IC50 (Estrogen receptor beta [1]) [µM] | EC50 (Estrogen receptor beta [2]) [µM] | IC50 (Estrogen receptor) [µM] |
| --- | --- | --- | --- |
| CCCc1nc2cc(O)cc(O)c2c(=O)n1-c1ccc(O)cc1 | 3.22 |  | 5.36 |
| O=c1c2c(O)cc(O)cc2ncn1-c1ccc(O)cn1 | 3.53 | 0.358 | 98 |
| O=c1c2c(O)c(I)c(O)c(I)c2ncn1-c1ccc(O)cc1 | 12.3 | 1.97 |  |
| O=c1c2c(O)cc(O)cc2ncn1-c1ccc(O)c(F)c1 | 0.65 | 0.117 | 44.2 |
| COc1cc(O)c2c(=O)n(-c3ccc(O)cc3)c(=S)[nH]c2c1 | 72.8 | 3.84 |  |
| O=c1[nH]c2cc(O)cc(O)c2c(=O)n1-c1ccc(O)cc1 | 9.38 | 1.31 | 70.3 |
| CCCCc1nc2cc(O)cc(O)c2c(=O)n1-c1ccc(O)cc1 | 0.249 |  | 0.178 |
| Oc1cc(O)c2c(=S)n(-c3ccc(O)c(F)c3)cnc2c1 | 0.102 | 0.02 | 3.08 |
| Oc1ccc(-n2cnc3cc(O)cc(O)c3c2=S)cc1 | 0.047 | 0.013 | 2.64 |
| O=c1c2c(O)cc(O)cc2nc(Cl)n1-c1ccc(O)cc1 | 13.4 | 8.78 |  |
| O=c1c2c(O)cc(O)cc2ncn1-c1ccc(O)cc1F | 0.256 | 0.19 | 7.48 |
| O=c1c2c(O)cc(O)cc2ncn1-c1ccccc1 | 18.5 | 1.72 | 75.6 |
| O=c1c2c(OS(=O)(=O)C(F)(F)F)cc(O)cc2ncn1-c1ccc(O)cc1 | 12 | 3.8 |  |
| COc1cc(O)c2c(=O)n(-c3ccc(O)cc3)cnc2c1 | 9.53 | 8.51 | 26 |
| Cc1cc(-n2cnc3cc(O)cc(O)c3c2=O)ccc1O | 7.49 | 1.25 | 34.6 |
| Cc1cc(O)cc2ncn(-c3ccc(O)cc3)c(=S)c12 | 0.079 | 0.222 | 1.75 |
| O=c1c2c(CO)cc(O)cc2ncn1-c1ccc(O)cc1 | 0.024 | 4.46 | 0.121 |
| Cc1c(O)cc(O)c2c(=O)n(-c3ccc(O)cc3)cnc12 | 1.27 | 8.87 | 15.3 |
| COC(=O)c1cc(OC(C)=O)cc2ncn(-c3ccc(OC(C)=O)cc3)c(=S)c12 |  | 11.3 |  |
| C=C(C)c1cc(O)cc2ncn(-c3ccc(O)cc3)c(=O)c12 | 2.3 | 0.729 | 44 |
| O=c1c2ccc(O)cc2nc(-c2ccc(O)cc2)n1-c1ccc(O)cc1 | 441 |  | 48.5 |
| O=c1c2c(-c3ccccc3)cc(O)cc2ncn1-c1ccc(O)cc1 | 30.7 | 11.7 | 102 |
| COc1cc(O)cc2ncn(-c3ccc(O)cc3)c(=O)c12 |  | 8.51 |  |
| Oc1ccc(-c2coc3cc(O)cc(O)c3c2=S)cc1 [THIOGENISTEIN] | 1.34 | 0.014 | 55.9 |
